Reference: US5352667A, “Non-peptidic surrogates of the Arg-Gly-Asp sequence and pharmaceutical compositions comprising them” (priority 1991, dated 1994)

Each molecule was assayed on B16-melanoma cells adhesion to FN (assay: Inhibition of B16-melanoma cell adhesion to FN). Conditions: surrogates 0.2 mM; * P<0.05.
Assay type: cell-based, murine
Description: (§1) To examine the adhesive properties of tumor cells, 1 μg/50μ/well of FN or 0.3μg/well of VN were added to 96-flat bottom microtiter wells for 12 h. Unbound proteins were then washed away and remaining binding sites were blocked with 0.1% BSA added to the wells for 2 h and washed. Murine B16-melanoma F-1 cells were metabolically labeled with ^35 S-methionine (New England Nuclear) for 2 h, chased for 18 h and extensively washed. The cell suspension was resuspened in RPMI supplemented with 1% BSA containing 1 mM CaCl2 and MgCl2. Tumor cell adhesion to control wells or to wells coated with BSA was always 2-5%. The tested non-peptidic surrogates, 0.2 mM in PBS, were used to pretreat the tumor cells for 15 min before seeding the cells *, P<0.05.
(§2) In a first series of experiments, the potential inhibitory action of the RGD surrogate SF-6,5 on adhesion of B16 melanoma cells to FN or VN was compared to that of the RGE surrogate SF-6,6 and to that of RGD, GRGDSPK and GRGESP peptides.
In a further set of experiments, the inhibitory activity of the RGD surrogates SF-6,5 and NS-11 on the adhesion of B16 murine melanoma cells to FN was compared to that of the GRGDSP peptide.

Molecule | % inhibition of adhesion of B16-melanoma cells to FN [%]
GRGESP | 0
Arg-Gly-Asp [RGD] | 7

Same assay, conditions: surrogates 0.2 mM; none 75 ± 5

Molecule | % Adhesion of B16-melanoma cells to FN [%]
GRGESP | 73 ± 5
Arg-Gly-Asp [RGD] | 70 ± 3

Each molecule was assayed on B16-melanoma cells adhesion to VN (assay: Inhibition of B16-melanoma cell adhesion to VN). Conditions: surrogates 0.2 mM; * P<0.05.
Assay type: cell-based, murine
Description: as §1, §2

Molecule | % inhibition of adhesion of B16-melanoma cells to VN [%]
GRGESP | 0
Arg-Gly-Asp [RGD] | 0

Same assay, conditions: surrogates 0.2 mM; none 68 ± 5

Molecule | % Adhesion of B16-melanoma cells to VN [%]
GRGESP | 66 ± 8
Arg-Gly-Asp [RGD] | 66 ± 6

The molecules below were run on CD4^+ T cell adhesion to 120 kD fragment of FN (assay: Inhibition of activated CD4+ T cell adhesion to 120 kD fragment of FN). Conditions: 0.2 mM peptides and surrogates; mAb anti-CD29 1/200, anti-VLA5 1/400 diluted; * P<0.05.
Assay type: cell-based, human
Description: (§3) To examine the adhesive properties of the T cells, 1 μg/50 μl/well of either fibronectin (FN) (Sigma), the 120 kD cell attachment fragment of FN (Telios Pharm. Inc. San Diego, CA), or laminin (LN) (Sigma), were added to 96-flat bottom microtiter-wells for 12 h. Unbound proteins were then washed away and remaining binding sites were blocked with 0.1% bovine serum albumin (BSA) added to the wells for 2 h and washed. CD4+T cells were purified from peripheral blood mononuclear leukocytes obtained from healthy human donors. The mononuclear cells were isolated using a Ficoll gradient, washed and incubated in RPMI supplemented with 10% fetal calf serum (FCS) and antibiotics in petri dishes at 37° C. humidified CO2 incubator. After 2 h, the non-adherent cells were isolated and applied on nylon-wool columns (1.5 h). CD4^+ T cells were then negatively selected by exposure of the cells to a cocktail of anti-CD8, CD19, and CD14 monoclonal antibodies (mAb) conjugated to magnetic-beads (Advanced Magnetics, MA). Unbound cells were recovered and their phenotype was examined. Purity of the CD4^+ T cells was always greater than 92% as determined by FACScan.
(§4) The purified CD4^+ T cells were radioactively labeled with ^51 [Cr](New England Nuclear) in RPMI +20% FCS for 2 h and washed. The cells were counted and seeded (0.2×10^5 cells) on the precoated microtiter wells in the presence or the absence of the various inhibitors. Coating was made either with FN, the 120 kD cell-attachment fragment of FN or with control adhesive protein laminin (LN). The inhibitors were various surrogates according to the invention, other test molecules or mAb. After 30 min incubation (in […] CO2 -- humidified incubator) the T cells were activated by 10 ng/ml phorbol myristate acetate (PMA) and the percent of T cells attached to the protein substrates was measured. Unbound cells were washed away after 20-30 min, the bound cells were lysed and their radioactivity was measured using radioactive counter. The amount of the radioactivity of the cell lysates represent the matrix-adherent cells and percent binding was calculated in comparison to the total radioactivity added to the wells. Activated T cell adhesion to control wells or to wells coated with BSA was always 2-5%; the level of adhesion of the non-activated T cells was always below 5%. Where indicated, 1/200 diluted mAb anti-CD29 (anti-β1 mAb Serotec, GB), or 1/400 diluted anti-VLA5 (the β1α5 FN-integrin receptor) mAb (Telios Pharm. Inc. San Diego), or 0.2 mM of RGD, GRGDSPK or GRGESP peptides (Sigma) were used. The tested non-peptidic surrogates, 0.2 mM in PBS, were used to pretreat the T cells for 15 min before seeding the cells *, P<0.05. The results shown in Tables 1A, 1B and 1C represent data obtained from several experiments that produced essentially similar results.
(§5) The four RGD surrogates, AC-4.

Molecule | % inhibition of adhesion of activated CD4^+ T cell to 120 kD fragment of FN [%]
N=C(N)NCCCC(=O)NCCC(=O)NCCC(=O)O [AC-14, 4,8-diaza-5,9-dioxo-12-quanidino-dodecanoic acid] | 42
NCCCCCC(=O)NCCCCC(=O)O [SFN-70, reference compound] | 0
N=C(N)NCCCCC(=O)NCCCCCC(=O)O [AC-15, 7-aza-8-oxo-12-quanidino-dodecanoic acid] | 19
GRGESP | 0
N=C(N)NCCCCC(=O)NCC(=O)NCCC(=O)O [AC-4, 4,7-diaza-5,8-dioxo-12-quanidino-dodecanoic acid] | 47
Arg-Gly-Asp [RGD] | 12

Same assay, conditions: 0.2 mM peptides and surrogates; mAb anti-CD29 1/200, anti-VLA5 1/400 diluted; PMA activated; none 43 ± 4

Molecule | % Adhesion of activated CD4^+ T cell to 120 kD fragment of FN [%]
N=C(N)NCCCC(=O)NCCC(=O)NCCC(=O)O [AC-14, 4,8-diaza-5,9-dioxo-12-quanidino-dodecanoic acid] | 25 ± 4
NCCCCCC(=O)NCCCCC(=O)O [SFN-70, reference compound] | 42 ± 5
N=C(N)NCCCCC(=O)NCCCCCC(=O)O [AC-15, 7-aza-8-oxo-12-quanidino-dodecanoic acid] | 35 ± 5
GRGESP | 46 ± 3
N=C(N)NCCCCC(=O)NCC(=O)NCCC(=O)O [AC-4, 4,7-diaza-5,8-dioxo-12-quanidino-dodecanoic acid] | 16 ± 3
Arg-Gly-Asp [RGD] | 38 ± 3

Same assay, conditions: 0.2 mM; 120 kD fragment of FN

Molecule | T cell adhesion to FN, in words
N=C(N)NCCCC(=O)NCCC(=O)NCCC(=O)O [AC-14, 4,8-diaza-5,9-dioxo-12-quanidino-dodecanoic acid] | inhibited T cell adhesion to FN
NCCCCCC(=O)NCCCCC(=O)O [SFN-70, reference compound] | did not inhibit T cell adhesion to both FN and LN
N=C(N)NCCCCC(=O)NCCCCCC(=O)O [AC-15, 7-aza-8-oxo-12-quanidino-dodecanoic acid] | inhibited T cell adhesion to FN
N=C(N)NCCCCC(=O)NCC(=O)NCCC(=O)O [AC-4, 4,7-diaza-5,8-dioxo-12-quanidino-dodecanoic acid] | inhibited T cell adhesion to FN
Arg-Gly-Asp [RGD] | specifically inhibited

These molecules were tested against T1, platelet GPIIb-IIIa receptor (Homo sapiens, UniProt P05106+P08514) (assay: Inhibition of ADP-induced platelet aggregation (platelet rich plasma)). Conditions: FIG. 4; fixed sub-saturating 0.5 mM / 10μg/ml; 4 experiments.
T1 construct: Platelet concentrates were prepared from human whole blood; endogenous in cells; host or cells: human platelets in platelet rich plasma
Assay type: cell-based
Description: To investigate the inhibitory role of the RGD analogues on adhesion, the platelet GPIIb-IIIa receptor which mediates platelet aggregation upon activation was used as a model.
Platelet concentrates were prepared from human whole blood in 10% adenine-citrate-dextrose in Fenwall bags (Baxter Travenol, Israel) followed by standard AABB protocol. Platelet rich plasma was prepared by centrifugation (2500 rpm for 5 min). Samples of platelets were counted in a Minos AST Cell Counter (Levoiselle, France). Cell aggregation was induced by […] and monitored at […] in a 4-channel Aggregometer (Bio-Data, Hatboro, Pa.). To evaluate the effect of the various RGD peptides and the peptide analogues, the platelet rich plasma was pre-incubated with the various inhibitors for 10 min at 37° C. with 10μsolutions followed by the induction of aggregation.
To examine the specificity of the inhibitory effect of the RGD-analogues on platelet aggregation, the cells were treated with various peptidic (RGD and GRGDSP) and non-peptidic (SF-6,6, SF-6,5 and AC-15) RGD analogues used at a fixed sub-saturating concentration of 0.5 mM.
An in vitro assay as described in Example 17 was carried out with the compound NS-11 to examine its ability to interfere with platelet aggregation, and compared it to the SF-6,5 surrogate.
Platelet rich plasma (PRP) was prepared from acid/citrate/dextrose anti-coagulated fresh human blood by differential centrifugation. Platelet aggregation was induced by […] and monitored at 695 nm by a 4-channel Aggregometer (Bio-Data, PA). To evaluate the effect of the RGDS peptide and the NS-8, NS-11 and NS-15 analogs, the PRP was preincubated with the inhibitors for 10 minutes at 37° C., prior to the induction of aggregation. […] In fact, 50% inhibition of platelet aggregation was achieved using a 30-fold lower concentration of NS-11 than that of RGDS.

T1 sequence (P08514 32-887 limits assumed): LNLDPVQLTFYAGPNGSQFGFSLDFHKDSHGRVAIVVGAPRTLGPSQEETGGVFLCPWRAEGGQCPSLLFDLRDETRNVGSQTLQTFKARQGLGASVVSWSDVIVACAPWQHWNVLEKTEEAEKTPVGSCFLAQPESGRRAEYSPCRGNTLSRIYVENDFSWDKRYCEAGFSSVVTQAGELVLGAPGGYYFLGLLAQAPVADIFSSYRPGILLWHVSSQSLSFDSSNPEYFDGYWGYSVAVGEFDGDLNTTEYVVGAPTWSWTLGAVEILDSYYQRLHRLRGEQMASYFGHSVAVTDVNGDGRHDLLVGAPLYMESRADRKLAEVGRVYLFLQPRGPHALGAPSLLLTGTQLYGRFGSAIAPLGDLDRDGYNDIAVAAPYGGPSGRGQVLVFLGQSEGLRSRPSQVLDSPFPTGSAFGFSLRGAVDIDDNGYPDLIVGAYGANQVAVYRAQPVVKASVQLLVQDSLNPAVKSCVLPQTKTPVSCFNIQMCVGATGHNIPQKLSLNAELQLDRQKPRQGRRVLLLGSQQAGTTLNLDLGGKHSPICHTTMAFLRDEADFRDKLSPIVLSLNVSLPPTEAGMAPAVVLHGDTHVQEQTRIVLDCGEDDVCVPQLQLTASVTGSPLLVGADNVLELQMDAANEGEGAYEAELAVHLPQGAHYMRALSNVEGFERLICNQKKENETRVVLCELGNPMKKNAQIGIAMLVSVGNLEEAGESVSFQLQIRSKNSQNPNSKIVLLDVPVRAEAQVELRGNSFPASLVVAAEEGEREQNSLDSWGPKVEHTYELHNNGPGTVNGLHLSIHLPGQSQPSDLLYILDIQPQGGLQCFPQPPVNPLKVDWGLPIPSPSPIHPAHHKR
T1 sequence (P08514 891-1039 limits assumed): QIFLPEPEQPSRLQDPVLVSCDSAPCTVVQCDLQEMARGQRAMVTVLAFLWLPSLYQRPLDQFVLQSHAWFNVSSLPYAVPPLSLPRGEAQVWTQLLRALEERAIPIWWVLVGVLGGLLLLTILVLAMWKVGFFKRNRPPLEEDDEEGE
T1 sequence (P05106 27-788): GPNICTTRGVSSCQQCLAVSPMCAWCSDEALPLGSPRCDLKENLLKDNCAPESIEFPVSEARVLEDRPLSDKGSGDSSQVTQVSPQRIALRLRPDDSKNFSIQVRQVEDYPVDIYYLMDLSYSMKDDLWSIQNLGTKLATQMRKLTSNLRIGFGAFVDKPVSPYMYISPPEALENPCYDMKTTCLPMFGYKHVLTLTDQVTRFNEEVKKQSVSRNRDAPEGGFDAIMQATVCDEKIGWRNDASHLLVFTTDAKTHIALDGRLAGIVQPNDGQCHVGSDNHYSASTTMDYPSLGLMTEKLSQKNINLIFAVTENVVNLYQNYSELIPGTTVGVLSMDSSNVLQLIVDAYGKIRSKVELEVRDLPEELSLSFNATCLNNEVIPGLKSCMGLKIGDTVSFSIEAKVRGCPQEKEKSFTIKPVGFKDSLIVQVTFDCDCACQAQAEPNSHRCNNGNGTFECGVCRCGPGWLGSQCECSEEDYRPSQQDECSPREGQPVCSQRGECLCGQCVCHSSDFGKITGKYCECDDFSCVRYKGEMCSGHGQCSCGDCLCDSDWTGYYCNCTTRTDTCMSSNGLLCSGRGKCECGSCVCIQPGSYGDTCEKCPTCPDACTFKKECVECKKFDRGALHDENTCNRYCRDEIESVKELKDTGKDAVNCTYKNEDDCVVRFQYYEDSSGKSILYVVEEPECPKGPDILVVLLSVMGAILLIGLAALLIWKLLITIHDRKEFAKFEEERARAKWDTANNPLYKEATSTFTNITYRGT

Molecule | Inhibition of platelet aggregation at fixed concentration, in words
N=C(N)NCCCCC(=O)NCCCCCC(=O)O [AC-15, 7-aza-8-oxo-12-quanidino-dodecanoic acid] | even higher than that of the GRGDSPK peptide
Arg-Gly-Asp [RGD] | not an effective inhibitor

The molecules below were run on CD4^+ T cell adhesion to LN (assay: Inhibition of activated CD4+ T cell adhesion to laminin (LN)). Conditions: 0.2 mM.
Assay type: cell-based, human
Description: as §3, §4, §5

Molecule | T cell adhesion to LN, in words
NCCCCCC(=O)NCCCCC(=O)O [SFN-70, reference compound] | did not inhibit T cell adhesion to both FN and LN

Same assay, conditions: 0.2 mM peptides and surrogates; mAb anti-CD29 1/200, anti-VLA5 1/400 diluted; * P<0.05

Molecule | % inhibition of adhesion of activated CD4^+ T cell to LN [%]
N=C(N)NCCCC(=O)NCCC(=O)NCCC(=O)O [AC-14, 4,8-diaza-5,9-dioxo-12-quanidino-dodecanoic acid] | 0
NCCCCCC(=O)NCCCCC(=O)O [SFN-70, reference compound] | 0
N=C(N)NCCCCC(=O)NCCCCCC(=O)O [AC-15, 7-aza-8-oxo-12-quanidino-dodecanoic acid] | 0
GRGESP | 0
N=C(N)NCCCCC(=O)NCC(=O)NCCC(=O)O [AC-4, 4,7-diaza-5,8-dioxo-12-quanidino-dodecanoic acid] | 0
Arg-Gly-Asp [RGD] | 0

Same assay, conditions: 0.2 mM peptides and surrogates; mAb anti-CD29 1/200, anti-VLA5 1/400 diluted; none 55 ± 5

Molecule | % Adhesion of activated CD4^+ T cell to LN [%]
N=C(N)NCCCC(=O)NCCC(=O)NCCC(=O)O [AC-14, 4,8-diaza-5,9-dioxo-12-quanidino-dodecanoic acid] | 55 ± 6
NCCCCCC(=O)NCCCCC(=O)O [SFN-70, reference compound] | 49 ± 6
N=C(N)NCCCCC(=O)NCCCCCC(=O)O [AC-15, 7-aza-8-oxo-12-quanidino-dodecanoic acid] | 52 ± 4
GRGESP | 52 ± 3
N=C(N)NCCCCC(=O)NCC(=O)NCCC(=O)O [AC-4, 4,7-diaza-5,8-dioxo-12-quanidino-dodecanoic acid] | 57 ± 4
Arg-Gly-Asp [RGD] | 57 ± 3

What follows are molecules tested on CD4^+ T cell adhesion to FN (assay: Inhibition of activated CD4+ T cell adhesion to FN). Conditions: Table 1B; surrogates 0.2 mM; CD4^+ T cell to FN.
Assay type: cell-based, human
Description: as §3
as §4, with “The tested non-peptidic surrogates, 0.2 mM in PBS, were used to pretreat the T cells for 15 min before seeding the cells *, P<0.05.” left out
In a second series of experiments, FN was used in the adhesion assay carried out with the RGD surrogates NS-8, NS-11 and NS-15 in comparison to RGDS peptide.
In a third series of experiments, FN was used in the adhesion assay with the surrogates SF-6,5 and NS-11 and compared to the peptide GRGDSP.

Molecule | % Inhibition of adhesion [%]
N=C(N)NCCC(=O)Nc1cccc(C(=O)NCCC(=O)O)c1 [NS-15] | 59
RGDS [reference compound] | 67
N=C(N)NCCCCC(=O)N1CCCCC1C(=O)NCCC(=O)O (stereo not shown) [NS-8] | 31

Same assay, conditions: Table 1B; surrogates 0.2 mM; none 65

Molecule | % Adhesion of activated CD4^+ to FN [%]
N=C(N)NCCC(=O)Nc1cccc(C(=O)NCCC(=O)O)c1 [NS-15] | 27
RGDS [reference compound] | 22
N=C(N)NCCCCC(=O)N1CCCCC1C(=O)NCCC(=O)O (stereo not shown) [NS-8] | 45
